Patent publication US5780025A, “Compositions and methods for the synthesis and assay of enkephalinase” (Genentech, Inc., priority 1993, dated 1998)

Molecular target: T1, purified rat kidney enkephalinase (Rattus norvegicus, UniProt P07861)
T1 construct: Rat kidney enkephalinase was purified to apparent homogeneity; from tissue; host or cells: rat kidney (male rats, membrane fraction, Triton X-100 solubilised)
T1 sequence (P07861 1-750): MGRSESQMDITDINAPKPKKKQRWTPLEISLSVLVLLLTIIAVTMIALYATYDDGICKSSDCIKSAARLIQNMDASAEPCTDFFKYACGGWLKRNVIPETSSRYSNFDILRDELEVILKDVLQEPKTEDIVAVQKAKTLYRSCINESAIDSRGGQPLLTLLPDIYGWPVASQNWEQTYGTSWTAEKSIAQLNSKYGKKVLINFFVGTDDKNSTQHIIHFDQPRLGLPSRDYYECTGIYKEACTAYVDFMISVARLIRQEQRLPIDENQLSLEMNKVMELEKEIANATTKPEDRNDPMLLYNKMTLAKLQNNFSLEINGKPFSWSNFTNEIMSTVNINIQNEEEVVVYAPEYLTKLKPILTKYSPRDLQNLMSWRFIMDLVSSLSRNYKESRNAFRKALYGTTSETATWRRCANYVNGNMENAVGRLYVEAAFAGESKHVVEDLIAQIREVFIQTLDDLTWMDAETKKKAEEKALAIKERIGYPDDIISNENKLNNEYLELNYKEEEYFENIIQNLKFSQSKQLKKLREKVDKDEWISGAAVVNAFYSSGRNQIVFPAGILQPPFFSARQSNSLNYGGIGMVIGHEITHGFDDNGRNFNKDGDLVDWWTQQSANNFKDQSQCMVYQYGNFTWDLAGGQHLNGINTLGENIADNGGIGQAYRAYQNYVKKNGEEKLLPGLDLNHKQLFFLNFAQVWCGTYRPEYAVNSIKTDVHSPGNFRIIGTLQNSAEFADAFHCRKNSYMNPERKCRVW
Assay: HPLC analysis of the hydrolysis of peptides by enkephalinase, without and with thiorphan
Assay type: biochemical
Conditions: 100 nM thiorphan; peptides 1 mM, 1 hr at 37° C., 5 ng enzyme

## O=C(O)CNC(=O)C(CS)Cc1ccccc1 (stereo not shown) [Thiorphan]
  inhibition of the hydrolysis of all substrates: completely inhibited
